{"source": "patent US9981954B2", "about": "“2-(pyrazin-2-ylcarbonylaminomethyl) benzimidazolium compounds as epithelial sodium channel inhibitors” (Boehringer Ingelheim International GmbH, priority 2015, dated 2018)", "key": {"[1]": {"biological_target": "T1, ENaC (Epithelial Sodium Channel), Mouse kidney M-1 cells (Mus musculus, UniProt Q61180+Q9WU38+Q9WU39)", "T1 construct": "Mouse kidney M-1 cells were cultivated in DMEM containing 5% FCS and 5 μM dexamethasone; endogenous in cells; host or cells: Mouse kidney M-1 cells (polarised on transwell filters, dexamethasone-treated)", "T1 sequence (Q61180 1-699)": "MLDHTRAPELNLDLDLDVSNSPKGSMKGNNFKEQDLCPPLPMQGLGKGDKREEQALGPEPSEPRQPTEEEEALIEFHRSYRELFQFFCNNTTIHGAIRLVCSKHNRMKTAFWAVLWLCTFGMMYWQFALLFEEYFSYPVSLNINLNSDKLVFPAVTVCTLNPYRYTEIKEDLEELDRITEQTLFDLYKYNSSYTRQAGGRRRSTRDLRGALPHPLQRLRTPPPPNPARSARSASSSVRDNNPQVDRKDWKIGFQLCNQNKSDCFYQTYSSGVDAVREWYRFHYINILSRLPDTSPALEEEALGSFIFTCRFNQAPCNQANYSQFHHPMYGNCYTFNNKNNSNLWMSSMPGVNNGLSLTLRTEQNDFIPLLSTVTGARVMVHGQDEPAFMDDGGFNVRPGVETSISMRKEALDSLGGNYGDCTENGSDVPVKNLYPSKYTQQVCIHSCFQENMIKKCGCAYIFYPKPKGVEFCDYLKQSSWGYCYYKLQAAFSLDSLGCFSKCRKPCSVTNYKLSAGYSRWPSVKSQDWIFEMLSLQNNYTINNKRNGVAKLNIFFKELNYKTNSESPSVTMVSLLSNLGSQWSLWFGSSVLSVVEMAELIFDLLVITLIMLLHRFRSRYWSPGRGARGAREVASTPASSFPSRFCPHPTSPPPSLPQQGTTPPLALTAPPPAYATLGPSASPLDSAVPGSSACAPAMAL", "T1 sequence (Q9WU38 1-638)": "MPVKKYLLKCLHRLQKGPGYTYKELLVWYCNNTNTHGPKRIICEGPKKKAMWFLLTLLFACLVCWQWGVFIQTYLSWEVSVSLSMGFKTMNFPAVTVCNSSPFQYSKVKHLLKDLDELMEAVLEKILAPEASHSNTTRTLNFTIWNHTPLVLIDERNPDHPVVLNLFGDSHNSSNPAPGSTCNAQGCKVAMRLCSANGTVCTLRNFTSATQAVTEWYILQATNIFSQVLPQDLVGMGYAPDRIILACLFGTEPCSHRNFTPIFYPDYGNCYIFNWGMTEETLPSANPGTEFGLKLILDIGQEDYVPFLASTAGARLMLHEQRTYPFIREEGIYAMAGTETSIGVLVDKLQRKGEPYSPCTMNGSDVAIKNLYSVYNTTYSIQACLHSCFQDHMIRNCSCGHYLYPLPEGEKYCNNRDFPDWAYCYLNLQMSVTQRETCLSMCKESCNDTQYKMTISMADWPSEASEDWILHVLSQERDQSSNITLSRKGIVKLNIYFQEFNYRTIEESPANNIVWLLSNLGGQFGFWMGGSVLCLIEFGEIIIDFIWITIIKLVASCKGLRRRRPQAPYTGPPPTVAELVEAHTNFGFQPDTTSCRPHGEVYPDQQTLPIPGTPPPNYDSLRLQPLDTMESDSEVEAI", "T1 sequence (Q9WU39 1-655)": "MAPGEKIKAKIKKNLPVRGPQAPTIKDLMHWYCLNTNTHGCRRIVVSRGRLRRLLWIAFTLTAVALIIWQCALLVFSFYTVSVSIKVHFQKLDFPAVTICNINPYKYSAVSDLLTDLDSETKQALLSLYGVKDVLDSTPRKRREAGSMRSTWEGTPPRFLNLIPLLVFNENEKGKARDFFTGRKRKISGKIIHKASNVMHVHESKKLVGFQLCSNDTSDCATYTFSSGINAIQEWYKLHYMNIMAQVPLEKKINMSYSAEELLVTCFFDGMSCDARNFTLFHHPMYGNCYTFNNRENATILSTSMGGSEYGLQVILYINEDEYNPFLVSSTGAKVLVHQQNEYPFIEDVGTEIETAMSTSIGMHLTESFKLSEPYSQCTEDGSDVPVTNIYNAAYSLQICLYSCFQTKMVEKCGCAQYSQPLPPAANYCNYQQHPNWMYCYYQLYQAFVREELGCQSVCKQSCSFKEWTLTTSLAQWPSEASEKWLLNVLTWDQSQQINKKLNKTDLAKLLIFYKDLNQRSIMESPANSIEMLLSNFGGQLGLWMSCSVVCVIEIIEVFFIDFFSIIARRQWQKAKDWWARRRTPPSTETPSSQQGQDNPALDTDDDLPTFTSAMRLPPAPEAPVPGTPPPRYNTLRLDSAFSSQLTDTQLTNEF", "experiment": "Ussing Chamber assay: inhibition of amiloride sensitive short circuit current in M-1 cells", "type": "cell-based", "details": "apical application, 37° C.", "procedure": "Ussing Chamber: Mouse kidney M-1 cells were cultivated in DMEM containing 5% FCS and 5 μM dexamethasone for 10 to 12 days on polyester transwell filters. Filters were inserted into a teflon-coated well-plate which fit into the ussing chamber system. Prior to measurement the medium of M-1 cells was replaced with Caco-2 transport buffer (Invitrogen, Germany). During measurements, the Ussing chamber temperature was kept at 37° C. Short circuit currents (I_sc) were measured in the voltage-clamp mode with the software package Lab View for data acquisition and analysis. The transepithelial electrical resistance (TEER) was determined by the application of voltage steps of ±5 mV every 5 sec. Compounds were administered at a final concentration of 3 μM or at increasing concentrations (1-3-10 μM) to the apical solution. At the end of each experiment the amiloride sensitive I_SC was measured by adding 3 μM amiloride to the apical compartment. Results are expressed as inhibition in percent of the amiloride effect or as IC50."}, "[2]": {"experiment": "Permeability in CALU-3 cells", "type": "in vitro ADME", "details": "human, CALU-3 monolayers, pH 7.4, 37° C., 10 μM compound; for Papp A→B at 90 min, 10 μM: apical-to-basal; for Papp B→A at 90 min, 10 μM: basal-to-apical", "procedure": "Permeability in CALU-3 Cells:\nPermeability measurements across polarized, confluent CALU-3 cell monolayers grown on permeable filter supports are used to provide information on the potential of a compound to pass the lung epithelium.\nCALU-3 cells (1-2×10^5 cells/l cm^2 area) are seeded on filter inserts (Costar transwell polycarbonate filters, 0.4 μm pore size) and cultured (for 10-12 days DMEM) until tight monolayers are formed. Compounds of interest are dissolved in appropriate solvent (DMSO, 10 mM stock solution). […] The transport solution (TL) is applied to the apical or basolateral donor side for measuring A-B or B-A permeability (3 filter replicates), respectively. The receiver side contains the same buffer as the donor side. After 30 min of accommodation, samples are collected at the start t0=0 min and at the end of the experiment tn=90 min from the donor and at 0, 30, 60, and 90 min also from the receiver chamber. Volume removed is […] by HTP-4 buffer. The compound concentration in the samples is measured by HPLC-MS/MS or scintillation counting. The permeability coefficient (Papp) and efflux ratio are calculated according to: Papp [cm/s]=(concentration receiver [nM]*volume receiver [mL]/time interval [sec])*(1/filter area)*(1/donor concentration [nM])."}}, "data": [{"smiles": "CC[n+]1c(CNC(=O)c2nc(Cl)c(N)nc2N)n(C2CCN(C(=O)NCCOC)CC2)c2ccccc21.O=C[O-]", "note": "[Example 7.01]", "values": [{"measurement": "IC50", "setting": "[1]", "result": 1, "unit": "nM"}, {"measurement": "Papp A→B at 90 min, 10 μM", "setting": "[2]", "result": 0.07, "unit": "×10⁻⁶ cm/s"}, {"measurement": "Papp B→A at 90 min, 10 μM", "setting": "[2]", "result": 0.2, "unit": "×10⁻⁶ cm/s"}]}, {"smiles": "CCn1c(CNC(=O)c2nc(Cl)c(N)nc2N)[n+](CC(=O)N(C)CCOC)c2ccc(OC)cc21.[Br-]", "note": "[Example 3.13]", "values": [{"measurement": "IC50", "setting": "[1]", "result": 7, "unit": "nM"}, {"measurement": "Papp A→B at 90 min, 10 μM", "setting": "[2]", "result": 0.07, "unit": "×10⁻⁶ cm/s"}, {"measurement": "Papp B→A at 90 min, 10 μM", "setting": "[2]", "result": 0.2, "unit": "×10⁻⁶ cm/s"}]}, {"smiles": "CCn1c(CNC(=O)c2nc(Cl)c(N)nc2N)[n+](CC(=O)NCCN(C)C)c2ccc(OC)cc21.O=C(O)C(F)(F)F.O=C([O-])C(F)(F)F", "note": "[Example 3.06]", "values": [{"measurement": "IC50", "setting": "[1]", "result": 8, "unit": "nM"}, {"measurement": "Papp A→B at 90 min, 10 μM", "setting": "[2]", "result": 0.1, "unit": "×10⁻⁶ cm/s"}, {"measurement": "Papp B→A at 90 min, 10 μM", "setting": "[2]", "result": 0.03, "unit": "×10⁻⁶ cm/s"}]}, {"smiles": "CCn1c(CNC(=O)c2nc(Cl)c(N)nc2N)[n+](CC(=O)N2CCNCC2)c2ccc(OC)cc21.Cl.[Cl-]", "note": "[Example 6.01]", "values": [{"measurement": "IC50", "setting": "[1]", "result": 47, "unit": "nM"}, {"measurement": "Papp A→B at 90 min, 10 μM", "setting": "[2]", "result": 0.3, "unit": "×10⁻⁶ cm/s"}, {"measurement": "Papp B→A at 90 min, 10 μM", "setting": "[2]", "result": 0.2, "unit": "×10⁻⁶ cm/s"}]}, {"smiles": "CCn1c(CNC(=O)c2nc(Cl)c(N)nc2N)[n+](CC(=O)N2CCN(C(=O)OC(C)(C)C)CC2)c2ccc(OC)cc21.[Br-]", "note": "[Example 3.08]", "values": [{"measurement": "IC50", "setting": "[1]", "result": 4, "unit": "nM"}, {"measurement": "Papp A→B at 90 min, 10 μM", "setting": "[2]", "result": 0.1, "unit": "×10⁻⁶ cm/s"}, {"measurement": "Papp B→A at 90 min, 10 μM", "setting": "[2]", "result": 0.08, "unit": "×10⁻⁶ cm/s"}]}, {"smiles": "CCn1c(CNC(=O)c2nc(Cl)c(N)nc2N)[n+](CC(=O)c2ccc(OC)c(OC)c2)c2ccc(OC)cc21.O=C([O-])C(F)(F)F", "note": "[Example 8.01]", "values": [{"measurement": "IC50", "setting": "[1]", "result": 13, "unit": "nM"}, {"measurement": "Papp A→B at 90 min, 10 μM", "setting": "[2]", "result": 0.3, "unit": "×10⁻⁶ cm/s"}, {"measurement": "Papp B→A at 90 min, 10 μM", "setting": "[2]", "result": 0.2, "unit": "×10⁻⁶ cm/s"}]}, {"smiles": "CC[n+]1c(CNC(=O)c2nc(Cl)c(N)nc2N)n(CCCc2ccc(OCP(C)(C)=O)cc2)c2cc(OC)ccc21.O=C([O-])C(F)(F)F", "note": "[Example 1.03]", "values": [{"measurement": "IC50", "setting": "[1]", "result": 8, "unit": "nM"}, {"measurement": "Papp A→B at 90 min, 10 μM", "setting": "[2]", "result": 0.1, "unit": "×10⁻⁶ cm/s"}, {"measurement": "Papp B→A at 90 min, 10 μM", "setting": "[2]", "result": 0.07, "unit": "×10⁻⁶ cm/s"}]}, {"smiles": "CCn1c(CNC(=O)c2nc(Cl)c(N)nc2N)[n+](CC(=O)NC2CCN(C(=O)OC(C)(C)C)CC2)c2ccc(OC)cc21.[Br-]", "note": "[Example 3.12]", "values": [{"measurement": "IC50", "setting": "[1]", "result": 12, "unit": "nM"}, {"measurement": "Papp A→B at 90 min, 10 μM", "setting": "[2]", "result": 0.09, "unit": "×10⁻⁶ cm/s"}, {"measurement": "Papp B→A at 90 min, 10 μM", "setting": "[2]", "result": 0.3, "unit": "×10⁻⁶ cm/s"}]}, {"smiles": "CCn1c(CNC(=O)c2nc(Cl)c(N)nc2N)[n+](CC(=O)N2CCOCC2)c2ccc(OC)cc21.[Br-]", "note": "[Example 3.02]", "values": [{"measurement": "IC50", "setting": "[1]", "result": 5, "unit": "nM"}, {"measurement": "Papp A→B at 90 min, 10 μM", "setting": "[2]", "result": 0.06, "unit": "×10⁻⁶ cm/s"}, {"measurement": "Papp B→A at 90 min, 10 μM", "setting": "[2]", "result": 0.2, "unit": "×10⁻⁶ cm/s"}]}]}
